From patent US20210253557A1, “SUBSTITUTED TRIAZOLE DERIVATIVES AND USES THEREOF” (Bayer Pharma Aktiengesellschaft, priority 2017, published 2021)

What was measured:
[1] = molecular target: T1, human V1a receptor (Homo sapiens, UniProt P37288); test: Cellular in vitro assay for determining vasopressin receptor activity (V1a, aequorin luminescence); assay type: cell-based; conditions: for IC50: CHO cell line transfected with the human V1a receptor, [Arg8]-vasopressin at EC50 concentration, read-out: IC50 hV1a; for ratio IC50 hV2/hV1a: selectivity ratio of IC50 hV2 to IC50 hV1a
T1 construct: expressed in transfected cells; host or cells: CHO K1 (ATCC), also stably transfected with a modified aequorin
T1 sequence (P37288 whole entry): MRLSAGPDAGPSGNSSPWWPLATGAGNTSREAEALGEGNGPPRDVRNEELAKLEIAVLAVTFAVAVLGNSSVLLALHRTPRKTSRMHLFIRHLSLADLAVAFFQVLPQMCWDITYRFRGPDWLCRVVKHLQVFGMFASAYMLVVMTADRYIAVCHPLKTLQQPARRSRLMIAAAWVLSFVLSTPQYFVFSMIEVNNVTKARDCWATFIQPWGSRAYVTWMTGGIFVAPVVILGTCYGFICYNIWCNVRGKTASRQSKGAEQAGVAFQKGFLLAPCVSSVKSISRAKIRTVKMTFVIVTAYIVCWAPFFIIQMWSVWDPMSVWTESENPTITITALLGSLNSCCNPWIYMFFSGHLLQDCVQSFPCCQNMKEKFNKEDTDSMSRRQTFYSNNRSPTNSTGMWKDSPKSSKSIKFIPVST

[2] = molecular target: T2, human V2 receptor (Homo sapiens, UniProt P30518); test: Cellular in vitro assay for determining vasopressin receptor activity (V2, CRE-luciferase); assay type: cell-based; conditions: CHO cell line transfected with the human V2 receptor; [Arg8]-vasopressin at EC50 concentration; read-out: IC50 hV2
T2 construct: expressed in transfected cells; host or cells: CHO K1 (ATCC) expressing firefly luciferase under a CRE-responsive promoter
T2 sequence (P30518 whole entry): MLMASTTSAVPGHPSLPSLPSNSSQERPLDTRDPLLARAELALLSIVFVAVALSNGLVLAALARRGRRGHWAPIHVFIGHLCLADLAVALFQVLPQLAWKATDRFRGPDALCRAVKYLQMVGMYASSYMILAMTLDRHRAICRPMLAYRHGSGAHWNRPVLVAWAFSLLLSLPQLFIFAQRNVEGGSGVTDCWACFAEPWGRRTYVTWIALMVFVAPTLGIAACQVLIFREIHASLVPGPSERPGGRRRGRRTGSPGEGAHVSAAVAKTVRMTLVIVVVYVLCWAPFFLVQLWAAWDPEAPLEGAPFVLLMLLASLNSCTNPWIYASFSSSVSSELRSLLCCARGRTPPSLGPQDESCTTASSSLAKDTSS
Method in brief: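 Antagonism was measured as inhibition of a 3-h, EC50-level [Arg8]-vasopressin stimulation, with compounds tested at several concentrations, yielding IC50 values. The read-out was cAMP-driven CRE-luciferase luminescence after lysis, in recombinant CHO K1 cells carrying human V2 receptor. Cells were seeded in 2% FCS DMEM/F12 one day earlier.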

Row | Compound | IC50 [1] | ratio IC50 hV2/hV1a [1] | IC50 [2]
1 | C[C@H](OC(N)=O)c1nc(Cn2nc(-c3ccc(Cl)cc3)n(C[C@H](O)C(F)(F)F)c2=O)nn1-c1ncccc1Cl [Example 14, (1S)-1-[3-({3-(4-Chlorophenyl)-5-oxo-4-[(2S)-3,3,3-trifluoro-2-hydroxypropyl]-4,5-dihydro-1H-1,2,4-triazol-1-yl}methyl)-1-(3-chloropyridin-2-yl)-1H-1,2,4-triazol-5-yl]ethyl Carbamate] | 1.75 nM | 29.7 | 52 nM
2 | C[C@H](OC(N)=O)c1nc(Cn2nc(-c3ccc(Cl)cc3)n(C[C@H](O)C(F)(F)F)c2=O)nn1-c1ccc(Cl)cn1 [Example 16, (1S)-1-[3-({3-(4-Chlorophenyl)-5-oxo-4-[(2S)-3,3,3-trifluoro-2-hydroxypropyl]-4,5-dihydro-1H-1,2,4-triazol-1-yl}methyl)-1-(5-chloropyridin-2-yl)-1H-1,2,4-triazol-5-yl]ethyl Carbamate] | 160 nM | 0.3 | 52.5 nM
3 | C[C@@H](OC(N)=O)c1nc(Cn2nc(-c3ccc(Cl)cc3)n(C[C@H](O)C(F)(F)F)c2=O)nn1-c1ccc(Cl)cn1 [Example 17, (1R)-1-[3-({3-(4-Chlorophenyl)-5-oxo-4-[(2S)-3,3,3-trifluoro-2-hydroxypropyl]-4,5-dihydro-1H-1,2,4-triazol-1-yl}methyl)-1-(5-chloropyridin-2-yl)-1H-1,2,4-triazol-5-yl]ethyl Carbamate] | 557 nM | 0.3 | 150 nM
4 | C[C@@H](OC(N)=O)c1nc(Cn2nc(-c3ccc(Cl)cc3)n(C[C@H](O)C(F)(F)F)c2=O)nn1-c1ncccc1OC(F)(F)F [Example 23, (1R)-1-{3-({3-(4-Chlorophenyl)-5-oxo-4-[(2S)-3,3,3-trifluoro-2-hydroxypropyl]-4,5-dihydro-1H-1,2,4-triazol-1-yl}methyl)-1-[3-(trifluoromethoxy)pyridin-2-yl]-1H-1,2,4-triazol-5-yl}ethyl Carbamate] | 5.4 nM | 52.8 | 285 nM
5 | NC(=O)OCc1nc(Cn2nc(-c3ccc(Cl)cc3)n(C[C@H](O)C(F)(F)F)c2=O)nn1-c1cccc(F)c1 [Example 26, [3-({3-(4-Chlorophenyl)-5-oxo-4-[(2S)-3,3,3-trifluoro-2-hydroxypropyl]-4,5-dihydro-1H-1,2,4-triazol-1-yl}methyl)-1-(3-fluorophenyl)-1H-1,2,4-triazol-5-yl]methyl Carbamate] | 5.29 nM | 0.9 | 4.82 nM
6 | COc1ccccc1-n1nc(Cn2nc(-c3ccc(Cl)cc3)n(C[C@H](O)C(F)(F)F)c2=O)nc1COC(N)=O [Example 27, [3-({3-(4-Chlorophenyl)-5-oxo-4-[(2S)-3,3,3-trifluoro-2-hydroxypropyl]-4,5-dihydro-1H-1,2,4-triazol-1-yl}methyl)-1-(2-methoxyphenyl)-1H-1,2,4-triazol-5-yl]methyl Carbamate] | 1.78 nM | 1.8 | 3.11 nM

Continued by falling IC50 [1], values first:

Row | IC50 [1] | ratio IC50 hV2/hV1a [1] | IC50 [2] | Compound
7 | 26.6 nM | 0.1 | 2.26 nM | NC(=O)OCc1nc(Cn2nc(-c3ccc(Cl)cc3)n(C[C@H](OC(N)=O)C(F)(F)F)c2=O)nn1-c1cccc(Cl)c1 [Example 25, (2S)-3-[1-({5-[(Carbamoyloxy)methyl]-1-(3-chlorophenyl)-1H-1,2,4-triazol-3-yl}methyl)-3-(4-chlorophenyl)-5-oxo-1,5-dihydro-4H-1,2,4-triazol-4-yl]-1,1,1-trifluoropropan-2-yl Carbamate]
8 | 25.9 nM | 0.2 | 5.29 nM | NC(=O)OCc1nc(Cn2nc(-c3ccc(Cl)cc3)n(C[C@H](O)C(F)(F)F)c2=O)nn1-c1cccc(Cl)c1 [Example 24, [1-(3-Chlorophenyl)-3-({3-(4-chlorophenyl)-5-oxo-4-[(2S)-3,3,3-trifluoro-2-hydroxypropyl]-4,5-dihydro-1H-1,2,4-triazol-1-yl}methyl)-1H-1,2,4-triazol-5-yl]methyl Carbamate]
9 | 9.95 nM | 14.4 | 144 nM | C[C@H](OC(N)=O)c1nc(Cn2nc(-c3ccc(Cl)cc3)n(C[C@H](O)C(F)(F)F)c2=O)nn1-c1ncccc1OC(F)(F)F [Example 22, (1S)-1-{3-({3-(4-Chlorophenyl)-5-oxo-4-[(2S)-3,3,3-trifluoro-2-hydroxypropyl]-4,5-dihydro-1H-1,2,4-triazol-1-yl}methyl)-1-[3-(trifluoromethoxy)pyridin-2-yl]-1H-1,2,4-triazol-5-yl}ethyl Carbamate]
10 | 7.7 nM | 3.9 | 30 nM | C[C@H](OC(N)=O)c1nc(Cn2nc(-c3ccc(Cl)cc3)n(C[C@H](O)C(F)(F)F)c2=O)nn1-c1ccncc1Cl [Example 18, (1S)-1-[3-({3-(4-Chlorophenyl)-5-oxo-4-[(2S)-3,3,3-trifluoro-2-hydroxypropyl]-4,5-dihydro-1H-1,2,4-triazol-1-yl}methyl)-1-(3-chloropyridin-4-yl)-1H-1,2,4-triazol-5-yl]ethyl Carbamate]
11 | 3.3 nM | 15.8 | 52 nM | C[C@@H](OC(N)=O)c1nc(Cn2nc(-c3ccc(Cl)cc3)n(C[C@H](O)C(F)(F)F)c2=O)nn1-c1c(Cl)cncc1Cl [Example 20, (1R)-1-[3-({3-(4-Chlorophenyl)-5-oxo-4-[(2S)-3,3,3-trifluoro-2-hydroxypropyl]-4,5-dihydro-1H-1,2,4-triazol-1-yl}methyl)-1-(3,5-dichloropyridin-4-yl)-1H-1,2,4-triazol-5-yl]ethyl Carbamate]
12 | 1.9 nM | 9.2 | 17.5 nM | C[C@H](OC(N)=O)c1nc(Cn2nc(-c3ccc(Cl)cc3)n(C[C@H](O)C(F)(F)F)c2=O)nn1-c1cnccc1Cl [Example 21, (1S)-1-[3-({3-(4-Chlorophenyl)-5-oxo-4-[(2S)-3,3,3-trifluoro-2-hydroxypropyl]-4,5-dihydro-1H-1,2,4-triazol-1-yl}methyl)-1-(4-chloropyridin-3-yl)-1H-1,2,4-triazol-5-yl]ethyl Carbamate]
13 | 1.55 nM | 40.7 | 63 nM | C[C@H](OC(N)=O)c1nc(Cn2nc(-c3ccc(Cl)cc3)n(C[C@H](O)C(F)(F)F)c2=O)nn1-c1c(Cl)cncc1Cl [Example 19, (1S)-1-[3-({3-(4-Chlorophenyl)-5-oxo-4-[(2S)-3,3,3-trifluoro-2-hydroxypropyl]-4,5-dihydro-1H-1,2,4-triazol-1-yl}methyl)-1-(3,5-dichloropyridin-4-yl)-1H-1,2,4-triazol-5-yl]ethyl Carbamate]
14 | 1.02 nM | 34.8 | 35.5 nM | C[C@@H](OC(N)=O)c1nc(Cn2nc(-c3ccc(Cl)cc3)n(C[C@H](O)C(F)(F)F)c2=O)nn1-c1ncccc1Cl [Example 15, (1R)-1-[3-({3-(4-Chlorophenyl)-5-oxo-4-[(2S)-3,3,3-trifluoro-2-hydroxypropyl]-4,5-dihydro-1H-1,2,4-triazol-1-yl}methyl)-1-(3-chloropyridin-2-yl)-1H-1,2,4-triazol-5-yl]ethyl Carbamate]
